Test results: PubChem BioAssay (NCI)
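96-well plates; 48 h exposure; 5 concentrations. Endpoints by linear interpolation between flanking doses. Not reached: highest tested concentration assigned. TGI: concentration producing complete growth inhibition.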

Tests used:
Assay in all cases: NCI anticancer screen, dose series, 48 h
[1] = test system: COLO 205 colon
[2] = test system: SK-MEL-5 melanoma
[3] = test system: EKVX NSCLC
[4] = test system: MDA-MB-231 breast
[5] = test system: M14 melanoma
[6] = test system: 786-0 renal
[7] = test system: HCT-15 colon
[8] = test system: HOP-62 NSCLC
[9] = test system: CCRF-CEM leukemia
[10] = test system: SK-MEL-2 melanoma
[11] = test system: SK-MEL-28 melanoma
[12] = test system: RXF 393 renal

| SMILES | TGI [1] | TGI [2] | TGI [3] | TGI [4] | TGI [5] | TGI [6] | TGI [7] | TGI [8] | TGI [9] | TGI [10] | TGI [11] | TGI [12] |
| --- | --- | --- | --- | --- | --- | --- | --- | --- | --- | --- | --- | --- |
| CC(C)(C)n1c(=O)n2n(c1=O)C1c3cccc4cccc(c34)C2C2c3cccc4cccc(c34)C1n1c(=O)n(C(C)(C)C)c(=O)n12 | > 100 µM | > 100 µM | > 100 µM | > 100 µM | > 100 µM | > 100 µM | > 100 µM | > 100 µM | > 100 µM | > 100 µM | > 100 µM |  |
| COc1ccccc1NC(=O)CC(=O)N1N=C(c2ccccc2)C(N=Nc2ccc(Cl)cc2)C1=O (configuration not stated) | > 100 µM | 42 µM | > 100 µM |  | > 100 µM | 37 µM | > 100 µM | 48.6 µM |  | > 100 µM | > 100 µM |  |
| O=C(NCCCN(CCCCN(CCCNC(=O)c1cc(S(=O)(=O)O)cc(O)c1O)C(=O)c1cc(S(=O)(=O)O)cc(O)c1O)C(=O)c1cc(S(=O)(=O)O)cc(O)c1O)c1cc(S(=O)(=O)O)cc(O)c1O | > 100 µM | > 100 µM |  | > 100 µM |  | > 100 µM | > 100 µM |  | > 100 µM | > 100 µM | > 100 µM |  |
| COC(=O)[C@]12CSC[C@H]1C[C@H](c1cccc3ccccc13)N2 | > 100 µM | > 100 µM | > 100 µM | > 100 µM | > 100 µM | > 100 µM | > 100 µM | > 100 µM | > 100 µM | > 100 µM | > 100 µM |  |
| CCOC(=O)/C(=C\NC(C)(C)CO)c1nc2ccccc2[nH]1 | > 100 µM | > 100 µM | > 100 µM |  | > 100 µM | > 100 µM | > 100 µM | > 100 µM | > 100 µM |  | > 100 µM | > 100 µM |
| CC(=O)NNc1nc(C)c(C(=O)/C=C/c2ccc(Cl)c(Cl)c2)s1 | > 100 µM | > 100 µM | > 100 µM |  |  | > 100 µM | > 100 µM | > 100 µM | > 100 µM | > 100 µM | > 100 µM | > 100 µM |
| O=c1[nH]c(=O)n(CCOc2ccc(Cl)cc2)cc1Nc1ccccc1 | > 100 µM | > 100 µM | > 100 µM |  | > 100 µM | > 100 µM | > 100 µM | > 100 µM | > 100 µM |  | > 100 µM | > 100 µM |
| C/C(=N/O)c1sc(-c2nc(C)c(/C(C)=N\O)s2)nc1C | > 100 µM | > 100 µM | > 100 µM |  | > 100 µM | > 100 µM | > 100 µM |  | > 100 µM |  | > 100 µM | > 100 µM |
| CCOC(=O)C(NC(=O)CC)(Nc1ccc(F)cc1F)C(F)(F)F (configuration not stated) | > 100 µM | > 100 µM | > 100 µM |  | > 100 µM | > 100 µM | > 100 µM |  | > 100 µM | > 100 µM | > 100 µM | > 100 µM |
| NC(N)=NS(=O)(=O)c1ccc(NC(=O)c2cccc3c(N)c4ccccc4nc23)cc1 | > 100 µM | > 100 µM | > 100 µM |  | > 100 µM | > 100 µM | > 100 µM | > 100 µM | > 100 µM | > 100 µM | > 100 µM | > 100 µM |
| CCCCCCCCCCCCC(Br)C(C)=O (configuration not stated) | > 100 µM | > 100 µM | > 100 µM |  | > 100 µM | > 100 µM | > 100 µM | > 100 µM | > 100 µM | > 100 µM | > 100 µM | > 100 µM |
| O=C(Cc1nc2ccc([N+](=O)[O-])cc2[nH]c1=O)C(=O)Nc1ccccc1[N+](=O)[O-] | > 100 µM | > 100 µM | > 100 µM |  | > 100 µM | > 100 µM | > 100 µM |  | > 100 µM | > 100 µM | > 100 µM | > 100 µM |
| CC(C)C(Sc1nc(-c2ccccc2)c(-c2ccccc2)[nH]1)c1n[nH]c(=S)n1-c1ccccc1 (configuration not stated) | 62.1 µM | 31.5 µM | 65.4 µM |  | 38.2 µM | > 100 µM | > 100 µM | > 100 µM | 64.5 µM | 43 µM | 70.2 µM |  |
| COC(=O)C(=O)C(/C(=N/N)C(=O)Nc1ccccc1C(N)=O)c1nc2ccc([N+](=O)[O-])cc2[nH]c1=O (configuration not stated) | > 100 µM | > 100 µM | > 100 µM |  | > 100 µM | > 100 µM | > 100 µM | > 100 µM | > 100 µM | > 100 µM | > 100 µM |  |
| Cc1ccc(C(=O)N/N=C(\N=Nc2ccccc2Cl)c2ccc(N(C)C)cc2)cc1 | > 100 µM | > 100 µM | > 100 µM | > 100 µM | > 100 µM | > 100 µM | > 100 µM |  | > 100 µM | > 100 µM | > 100 µM |  |
| O=C(O)CCN(CCCN(CCC(=O)O)CCC(=O)O)CCC(=O)O | > 100 µM | > 100 µM | > 100 µM |  | > 100 µM | > 100 µM | > 100 µM | > 100 µM | > 100 µM | > 100 µM | > 100 µM |  |

| SMILES | TGI [1] | TGI [2] | TGI [3] | TGI [4] | TGI [5] | TGI [6] | TGI [7] | TGI [8] | TGI [9] | TGI [10] | TGI [11] | TGI [12] |
| --- | --- | --- | --- | --- | --- | --- | --- | --- | --- | --- | --- | --- |
| CC1=C(C(=O)CC(=O)C(=O)Nc2ccc(C)c(C)c2)Sc2ccccc2N1 | > 100 µM | > 100 µM | > 100 µM |  | > 100 µM | > 100 µM | > 100 µM | > 100 µM |  |  | > 100 µM | > 100 µM |
| Cc1ccccc1Nc1nc(NNC(=O)Cc2ccccc2)nc(NNC(=O)c2ccncc2)n1 | > 10 µM |  | > 10 µM | > 10 µM | > 10 µM | > 10 µM | > 10 µM | > 10 µM | > 10 µM |  | > 10 µM |  |
| NC(CCCCNCc1ccccc1)C(=O)O (configuration not stated) | > 100 µM | > 100 µM | > 100 µM |  | > 100 µM | > 100 µM | > 100 µM | > 100 µM | > 100 µM | > 100 µM | > 100 µM |  |
| O=C(O)c1ccc([C@@H]2C(=O)N(O)[C@@H]3C=CC[C@@H]32)cc1 | > 100 µM | > 100 µM | > 100 µM |  | > 100 µM | > 100 µM | > 100 µM | > 100 µM | > 100 µM | > 100 µM | > 100 µM | > 100 µM |
| COc1ccc(/C=C2\CCC(CCN3CCOCC3)C2=O)cc1 (configuration not stated) |  | > 100 µM | > 100 µM |  | > 100 µM | > 100 µM | > 100 µM | > 100 µM | > 100 µM | > 100 µM | > 100 µM | > 100 µM |
| CCN(CC)Cc1cc(Nc2ccnc3ccc4nn(C)nc4c23)ccc1O | 19.1 µM | 29.9 µM |  |  | 27.9 µM | 49.5 µM | 43.8 µM | 36.8 µM | > 100 µM |  | 27.4 µM | 21.6 µM |
| O=C(O)C12CCC(CC1=O)C2 (configuration not stated) | > 100 µM | > 100 µM | > 100 µM |  | > 100 µM | > 100 µM | > 100 µM | > 100 µM | > 100 µM | > 100 µM | > 100 µM |  |
| COc1cc(CNc2cnc3ccc(N)cc3n2)cc(OC)c1OC | > 100 µM | > 100 µM | > 100 µM |  | > 100 µM | > 100 µM | > 100 µM | > 100 µM | > 100 µM | > 100 µM | > 100 µM | > 100 µM |
| COc1ccc(/C=C/C(=O)c2sc(-c3cccnc3)nc2C)cc1 | > 100 µM | > 100 µM | > 100 µM |  |  | > 100 µM | > 100 µM | > 100 µM | > 100 µM | > 100 µM | > 100 µM | 90.8 µM |
| COC(=O)C(c1ccc(OC)cc1)N1C(=O)[C@@H](NC(=O)c2ccccc2)[C@H]1[C@@H](C)O (some centres not stated) | > 100 µM | > 100 µM | > 100 µM |  | > 100 µM | > 100 µM | > 100 µM | > 100 µM | > 100 µM | > 100 µM | > 100 µM | > 100 µM |
| Cc1nc2c3c(ccc2[nH]c1=O)C(=O)c1ccccc1C3=O | > 100 µM | > 100 µM | > 100 µM |  | > 100 µM | > 100 µM | > 100 µM | > 100 µM |  |  | > 100 µM | > 100 µM |
| CC(=O)Oc1ccc2cc(-c3ccc(OC(C)=O)c(OC(C)=O)c3)c(=O)oc2c1 | > 100 µM |  | > 100 µM | > 100 µM | > 100 µM | > 100 µM | > 100 µM | > 100 µM | > 100 µM | > 100 µM | > 100 µM |  |
| CCOc1cccc(-c2cc(=O)c3cc4c(cc3[nH]2)OCO4)c1 |  | > 100 µM | > 100 µM |  | > 37.6 µM | 7.06 µM | 0.52 µM | > 100 µM |  | 24.9 µM | > 100 µM | 1.82 µM |
| CC(C)OP(=O)(OC(C)C)C(=NCCN=C(NNc1ccccc1[N+](=O)[O-])P(=O)(OC(C)C)OC(C)C)NNc1ccccc1[N+](=O)[O-] | 54.9 µM |  | > 100 µM |  | > 100 µM | > 100 µM | > 100 µM | > 100 µM | 70.9 µM | 40 µM | > 100 µM |  |
| Cc1ccc(-c2nnc3s/c(=C\c4ccc(N(C)C)cc4)c(=O)n23)cc1 | > 100 µM | > 100 µM | > 100 µM |  | > 100 µM | > 100 µM |  | > 100 µM | > 100 µM | > 100 µM | > 100 µM | > 100 µM |
